A short description of data set [1]: Control experiments degradation analysis without cells. Format: physicochemical. Conditions: Proteostat-stained fibrils without cells, 37°C, 30 min vs 3 d. How it is done: Control experiments degradation analysis: To check changes of fibril aggregation without cells fluorescence microscopy measurements (Leica DMi8 microscope, 10x air objective, Leica MC170 HD camera, λem = 527/30 nm, λex = 480/40 nm) were performed analogously to the cell‐experiments with PA1‐3. Briefly, 4 µL of the preformed peptide fibrils (1 mg mL^−1) were diluted with 4 µL Proteostat (Enzo Life Science, 1 µL stock in 999 µL PBS) and incubated for 10 min and further diluted with medium to receive a final peptide concentration of 20 µg mL^−1. The fibril aggregates were monitored after 30 min incubation at 37°C and for the evaluation of aggregate degradation, the samples were further incubated at 37°C for 3 d and analyzed without any additional washing step. […] The evaluation of aggregate size and number was conducted by analyzing Proteostat stained aggregates via the 3D objects counter function of ImageJ 1.53f51 for at least three individual measurements (area 1331.2 µm × 1331.2 µm) of three individually repeated experiments. […]
Aggregate analysis was conducted via fluorescence microscopy by cumulating triplicate measurements. […]

Data set [2] deals with HeLa cells. The data set is described as follows: Cell-PA interaction by confocal laser scanning microscopy. Conditions: peptide 20 µg mL-1 added for 30 min, washed, Proteostat stain. The format is cell-based. The procedure:
Confocal laser scanning microscopy and degradation study with PA1‐3 and HeLa cells: HeLa cells were seeded one day prior to conducting the assay (40000/well) in an 8‐well IBIDI slide. 4 µL of the preformed peptide fibrils (1 mg mL^−1) were diluted with 4 µL Proteostat (Enzo Life Science, 1 µL stock in 999 µL PBS) and incubated for 10 min and further diluted with medium to receive a final peptide concentration of 20 µg mL^−1. The nucleus of the HeLa cells was stained with Hoechst 33 342 (NucBlue, Thermo Fisher Scientific). The peptide solution was transferred to the HeLa cells and incubated for 30 min at 37°C before washing three times with PBS. The interaction of fibril clusters with cells was monitored after 30 min incubation time on a Stellaris 8 confocal laser scanning microscope (Leica) equipped with a 20x air objective and laser excitation wavelengths of 405 nm (Hoechst) and 561 nm (Proteostat). For the evaluation of aggregate degradation, the samples were further incubated at 37°C for 3 d and analyzed without any additional washing step. The evaluation of aggregate size and number was conducted by analyzing Proteostat stained aggregates via the 3D objects counter function of ImageJ 1.53f51 for 3 individual measurements (area 581.25 µm × 581.25 µm). […] The number of aggregates larger than 10 µm^2 were counted via the 3D objects counter function of ImageJ 1.53f51. The mean number and standard deviations were determined by averaging at least three technical triplicates.
Figure S6 Laser scanning microscopy micrographs of A cells only (control), and Proteostat-stained (red) peptides B EF-
C ([…]), C PA1, D PA2, E PA3, F P1, G P2, H P3 added to HeLa cells (nucleus in blue). The peptides (20 µg mL-
1) were added to cells for 30 min, washed and analyzed. […]

Data set [3] is described as follows: Microscopic aggregation (fluorescence / confocal microscopy, derived count rate). Conditions: for formation of µm-sized aggregates (in words): fibrils preformed at 1 mg mL-1 in PBS, ThT or Proteostat stain, widefield or confocal microscopy, derived count rate > 1000 kcps as criterion; for assembly in water (fluorescence microscopy): incubated 1 d in pure MilliQ water, ThT stain. Format: physicochemical.

“Also recorded” adds a separate entry of the source. Where a SMILES comes first, the peptide text is derived from it. The star is where a group is joined. Palmitoyl = CCCCCCCCCCCCCCCC(=O)*

As to `CCCCCCCCCCCCCCCC(=O)N[C@@H](Cc1ccccc1)C(=O)N[C@@H](CCC(N)=O)C(=O)N[C@@H](Cc1ccccc1)C(=O)N[C@@H](CCCCN)C(=O)N[C@@H](Cc1ccccc1)C(=O)N[C@@H](CCCCN)C(=O)N[C@@H](CS)C(N)=O` [PA2] (Palmitoyl-FQFKFKC-NH2), the “change of aggregate size and number without cells” value in data set [1] is “not significantly changing in size and number”. In data set [2], the “association with cellular membranes” value was “association with cellular membranes”. In addition, in data set [3], the “formation of µm-sized aggregates (in words)” value was “micrometer‐sized clusters of fibrils were formed; also recorded: high aggregation; also recorded: form µm‐sized aggregates” and the “assembly in water (fluorescence microscopy)” value is on record as “distinct fibrils”.

C16-VVVAAAKKK-NH2 [PA1]: the “change of aggregate size and number without cells” value in data set [1] was “not significantly changing in size and number”. Besides, in data set [2], the “association with cellular membranes” value is given as “association with cellular membranes”. In data set [3], the “formation of µm-sized aggregates (in words)” value was “micrometer‐sized clusters of fibrils were formed; also recorded: less aggregation; also recorded: form µm‐sized aggregates” and the “assembly in water (fluorescence microscopy)” value is “distinct fibrils”.

The values above are taken from PMC11468294, “Peptide Amphiphiles as Biodegradable Adjuvants for Efficient Retroviral Gene Delivery” (Advanced Healthcare Materials, 2023).
